From ChEMBL document CHEMBL3886421, “6-thio-substituted imidazo[1,2-a]pyrazines as Mps-1 inhibitors” (2015)

Target: T1, Dual specificity protein kinase TTK (Homo sapiens, UniProt P33981)
T1 sequence (P33981 whole entry): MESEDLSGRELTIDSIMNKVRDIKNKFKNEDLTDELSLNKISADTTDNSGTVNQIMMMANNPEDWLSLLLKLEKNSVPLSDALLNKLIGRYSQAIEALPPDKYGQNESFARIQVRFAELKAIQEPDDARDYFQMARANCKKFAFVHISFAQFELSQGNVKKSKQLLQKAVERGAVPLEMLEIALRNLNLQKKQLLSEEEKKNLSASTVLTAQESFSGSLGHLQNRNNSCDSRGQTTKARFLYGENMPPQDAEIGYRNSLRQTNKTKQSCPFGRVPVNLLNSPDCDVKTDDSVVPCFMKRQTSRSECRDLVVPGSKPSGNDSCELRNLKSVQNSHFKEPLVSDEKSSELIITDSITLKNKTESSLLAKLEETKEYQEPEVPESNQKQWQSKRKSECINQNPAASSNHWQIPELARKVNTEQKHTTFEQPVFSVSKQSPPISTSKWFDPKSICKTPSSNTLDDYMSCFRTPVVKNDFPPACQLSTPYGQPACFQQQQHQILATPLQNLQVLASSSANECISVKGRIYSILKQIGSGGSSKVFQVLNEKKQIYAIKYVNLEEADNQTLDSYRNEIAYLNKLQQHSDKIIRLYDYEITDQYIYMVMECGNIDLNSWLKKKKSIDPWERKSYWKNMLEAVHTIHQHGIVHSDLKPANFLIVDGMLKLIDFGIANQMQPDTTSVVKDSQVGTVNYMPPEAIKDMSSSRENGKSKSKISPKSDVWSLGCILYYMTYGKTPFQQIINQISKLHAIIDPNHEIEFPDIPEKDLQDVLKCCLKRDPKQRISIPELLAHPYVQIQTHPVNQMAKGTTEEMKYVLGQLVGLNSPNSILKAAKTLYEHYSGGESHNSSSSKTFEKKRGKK
Assay: Kinase Assay: For the assay 50 nL of a 100-fold concentrated solution of the test compound in DMSO was pipetted into a black low volume 384 well microtiter plate (Greiner Bio-One, Frickenhausen, Germany), 2 ul of a solution of Mps-1 in assay buffer [0.1 mM sodium-ortho-vanadate, 10 mM MgCl2, 2 mM DTT, 25 mM Hepes pH 7.7, 0.05% BSA, 0.001% Pluronic F-127] were added and the mixture was incubated for 15 min at 22° C. to allow pre-binding of the test compounds to Mps-1 before the start of the kinase reaction. Then the kinase reaction was started by the addition of 3 ul of a solution of 16.7 adenosine-tri-phosphate (ATP, 16.7 uM=>final conc. in the 5 ul assay volume is 10 uM) and peptide substrate (1.67 uM=>final conc. in the 5 ul assay volume is 1 uM) in assay buffer and the resulting mixture was incubated for a reaction time of 60 min at 22° C. The concentration of Mps-1 in the assay was adjusted to the activity of the enzyme lot.

CCCSc1cn2c(-c3ccc(C(=O)NC4CC4)c(C)c3)cnc2c(NCC(C)(C)O)n1 was tested, and the IC50 was 52.1 nM.
